Assay results: paper PMC7822874, “Chemoprotective antimalarials identified through quantitative high-throughput screening of Plasmodium blood and liver stage parasites” (Scientific Reports, 2021)

The molecules below were run on Plasmodium falciparum Dd2 asexual blood stage parasites (assay: microbe, parasite or virus in culture). Conditions: Plasmodium falciparum, DD2, Erythrocyte, 72 h.
Design: species or system Plasmodium falciparum Dd2 in human erythrocytes; single determination (one 11-point concentration-response curve)
`Cc1ccc(C(=O)Nc2cccc(NC(=O)c3ccc(C)c([N+](=O)[O-])c3)n2)cc1[N+](=O)[O-]` [MLS001195117-01] was tested, and the AC50 was 15 µM.

Same assay, conditions: Plasmodium falciparum, DD2, Erythrocyte, 72 h; read-out: AC50
For `COc1ccc(CNC(=O)C2CCN(c3nc(-c4ccccc4)nc4c3CCC4)CC2)cc1` [MLS001120192-01], the AC50 was 7.5 µM. Molecule `COc1cccc(-c2cc(C(=O)Nc3ccncc3)c3ccccc3n2)c1` [MLS001125696-01] has an AC50 of 6.68 µM. `CC(C)c1ccc(C2c3[nH]c4ccccc4c3C[C@H]3C(=O)N(c4ccccc4C(=O)N4CCC(C(=O)O)CC4)C(=O)N23)cc1` (stereo partly drawn) [MLS001140664-01] was tested, and the AC50 was 6.68 µM. Molecule `O=C(NCC1CCCCC1)c1cc2ccccc2cc1O` [MLS001141978-01] has an AC50 of 9.44 µM. In the case of `COc1cccc(NC(=O)CN(C)C(=O)c2oc3c(ccc4ccccc43)c2C)c1` [MLS001142056-01], the AC50 was 0.75 µM. With `Nc1nonc1-n1nnc(C(=O)N/N=C/c2ccc(F)cc2)c1-c1ccc2c(c1)OCO2` [MLS001142639-01] the AC50 was 0.335 µM. `Cc1ccc(/C=N/NC(=O)c2nnn(-c3nonc3N)c2-c2ccc3c(c2)OCO3)s1` [MLS001142659-01] showed an AC50 of 0.841 µM. In the case of `Nc1nonc1-n1nnc(C(=O)N/N=C/c2ccc(Cl)cc2)c1-c1ccc2c(c1)OCO2` [MLS001142698-01], the AC50 was 0.376 µM. For `CCOc1cc(C(=O)N2CCC(CC3CC(c4ccc(Cl)cc4)=NO3)(C(=O)NCC3CCCCC3)CC2)cc(OCC)c1OCC` (stereo not drawn) [MLS001143937-01], the AC50 was 0.841 µM. Work on `CCCCCCCNC(=O)C1(CC2CC(c3cccc(Br)c3)=NO2)CCN(C(=O)c2cc(OCC)c(OCC)c(OCC)c2)CC1` (stereo not drawn) [MLS001144006-01] yielded an AC50 of 10.6 µM. `COc1ccc(CCn2c(=N)c(C(=O)NCCN3CCOCC3)cc3c(=O)n4cccc(C)c4nc32)cc1OC` [MLS001146185-01] showed an AC50 of 13.3 µM. `Cc1cccc(-c2cc(C(=O)Nc3ccncc3)c3ccccc3n2)c1` [MLS001147429-01] showed an AC50 of 8.41 µM. `O=S(=O)(c1ccc(F)cc1)N1CCN(/C(S)=N/CC2CCCO2)CC1` (stereo not drawn) [MLS001148319-01] was tested, and the AC50 was 6.68 µM. `CCN(CC)S(=O)(=O)c1ccc(N2CCCCC2)c(NC(=O)C2=COCCO2)c1` [MLS001150729-01] showed an AC50 of 6.68 µM. `CCCCn1c(N)c(N(CC(C)C)C(=O)c2cc(-c3ccc(OC)c(OC)c3)nc3ccccc23)c(=O)[nH]c1=O` [MLS001157051-01] showed an AC50 of 11.9 µM. Molecule `CC(Oc1ccc(F)cc1)C(=O)Nc1cc(Cl)ccc1-n1cncn1` (stereo not drawn) [MLS001157608-01] has an AC50 of 6.68 µM. In the case of `CCc1cc(=O)oc2cc(C)cc(OCC(=O)NCC(O)c3ccccc3)c12` (stereo not drawn) [MLS001158251-01], the AC50 was 6.68 µM. For `Cc1cc(OC(C)C(=O)NCCc2c[nH]c3ccccc23)c2c(C)cc(=O)oc2c1` (stereo not drawn) [MLS001158613-01], the AC50 was 2.66 µM. In the case of `O=C(Nc1ccncc1)c1cc(-c2cccc(Br)c2)nc2ccccc12` [MLS001159350-01], the AC50 was 13.3 µM. For `CCCCc1cc(=O)oc2cc(C)cc(OCC(=O)Nc3cccnc3)c12` [MLS001160046-01], the AC50 was 0.596 µM. Work on `CC(Oc1ccc(F)cc1)C(=O)Nc1cc(C(F)(F)F)ccc1-n1cncn1` (stereo not drawn) [MLS001160637-01] yielded an AC50 of 1.68 µM. Molecule `COc1ccc(-c2csc3ncnc(N4CCN(S(=O)(=O)c5ccc(C(C)=O)cc5)CC4)c23)cc1` [MLS001160708-01] has an AC50 of 4.22 µM. `CC1CC(C)CN(C(=O)c2ccc3ccccc3c2)C1` (stereo not drawn) [MLS001161774-01] was tested, and the AC50 was 2.37 µM. In the case of `Oc1ccccc1C1=NN(c2ccccc2)C(c2ccccc2)C1` (stereo not drawn) [MLS001163829-01], the AC50 was 7.5 µM. `Cc1ccc(N(C)C2=NC(=O)CS2)cc1Cl` [MLS001164579-01] gave an AC50 of 9.44 µM. Work on `COc1ccc(CN2C(=O)C(C)N(C(=O)c3c(F)cccc3F)c3ccccc32)cc1` (stereo not drawn) [MLS001166304-01] yielded an AC50 of 7.5 µM. For `CCN(CC(O)c1cccc(O)c1)C(=O)C12CC3CC(CC(C3)C1)C2` (stereo not drawn) [MLS001166662-01], the AC50 was 4.73 µM. In the case of `CS(=O)(=O)c1ccc(C(=O)Nc2ccc(-c3nc4ccccc4[nH]3)cc2)cc1` [MLS001166841-01], the AC50 was 7.5 µM. Molecule `COC1=CC(=O)C(=C(C)N/N=C(\S)NCCc2ccccc2)C=C1` [MLS001170945-01] has an AC50 of 3.35 µM. `OC(c1ccc(Cl)cc1)C(CN1CCOCC1)c1ccccc1` (stereo not drawn) [MLS001173582-01] was tested, and the AC50 was 2.99 µM. Molecule `COc1ccccc1NCc1cc(=O)oc2c(C)c(O)ccc12` [MLS001175266-01] has an AC50 of 5.96 µM. With `COc1ccc(CCN(C)/C(S)=N/c2cccc(C)c2)cc1OC` [MLS001177860-01] the AC50 was 2.11 µM. In the case of `CC(C)c1ccccc1OCC(O)CN(CC(O)COc1cccc2ccccc12)C(C)C` (stereo not drawn) [MLS001179995-01], the AC50 was 2.37 µM. In the case of `Oc1ccc(-c2ccccc2)cc1CN1CCCCCC1` [MLS001195126-01], the AC50 was 0.266 µM. `COc1ccccc1C1CC(c2ccccc2)=NN1C(=O)c1ccccc1` (stereo not drawn) [MLS001197331-01] gave an AC50 of 2.37 µM. Molecule `COc1cc(C2Nc3ccc4ccccc4c3C3=C2C(=O)CC(C)(C)C3)ccc1OC(C)C(=O)O` (stereo not drawn) [MLS001197433-01] has an AC50 of 6.68 µM. With `CCOc1ccc(CCNC(=O)Nc2ccccc2)cc1OCC` [MLS001197603-01] the AC50 was 5.31 µM. `CCCCN(CC)CCNC(S)=Nc1ccc2nc(N3CCN(C)CC3)cc(C)c2c1` [MLS001197626-01] gave an AC50 of 5.96 µM. With `CC1C(=O)C(C)C(c2cc(Cl)ccc2O)NC1c1cc(Cl)ccc1O` (stereo not drawn) [MLS001197743-01] the AC50 was 6.68 µM. For `Cc1[nH]c2ccc(OC(F)(F)F)cc2c1CCNCc1cccc([N+](=O)[O-])c1` [MLS001198398-01], the AC50 was 4.73 µM. With `CCCCCCC(O)(c1ccc(OC)cc1)C(CN1CCOCC1)c1ccccc1` (stereo not drawn) [MLS001198921-01] the AC50 was 4.22 µM. `CCCCCC(O)(c1ccc(OC)cc1)C(CN1CCOCC1)c1ccccc1` (stereo not drawn) [MLS001198946-01] was tested, and the AC50 was 2.11 µM. Molecule `COc1ccc(C(O)(CCC(C)C)C(CN2CCOCC2)c2ccccc2)cc1` (stereo not drawn) [MLS001198958-01] has an AC50 of 5.31 µM. Work on `Cc1cc(N(C)Cc2ccccc2)nc2cc(O)ccc12` [MLS001199318-01] yielded an AC50 of 2.37 µM. Molecule `NC1=NC(c2ccccc2C(F)(F)F)N(c2ccc(F)c(Cl)c2)C(N)=N1` (stereo not drawn) [MLS001199775-01] has an AC50 of 11.9 µM. `COc1ccc(C(O)(CCC(C)C)C(CN2CCOCC2)c2ccc(Cl)cc2)cc1` (stereo not drawn) [MLS001200330-01] gave an AC50 of 6.68 µM. Molecule `CCCCC(O)(c1ccc(F)cc1)C(CN1CCOCC1)c1ccc(Cl)cc1` (stereo not drawn) [MLS001200342-01] has an AC50 of 5.96 µM. `CCCC(O)(c1ccc(Cl)cc1)C(CN1CCOCC1)c1ccc(Cl)cc1` (stereo not drawn) [MLS001200366-01] showed an AC50 of 4.73 µM. For `Cc1ccccc1Nc1nc(-c2cccnc2)cs1` [MLS001206645-01], the AC50 was 9.44 µM. In the case of `Cc1ccc2nc(-c3ccc(O)c(O)c3)cn2c1` [MLS001209043-01], the AC50 was 13.3 µM. In the case of `Cc1oc2c(CN3CCCCC3)c(O)ccc2c(=O)c1-c1ccc(Cl)cc1` [MLS001214839-01], the AC50 was 5.31 µM. `CCOc1ccc2[nH]c3c(NCCN(C)C)ncnc3c2c1` [MLS001214990-01] gave an AC50 of 16.8 µM. For `CCOC(=O)COn1c(-n2nc(C)cc2C)nc2ccccc2c1=O` [MLS001215150-01], the AC50 was 9.44 µM. Work on `Cc1cc(C)c2oc(=O)cc(CN3CCCCC3)c2c1` [MLS001216359-01] yielded an AC50 of 13.3 µM. `O=c1nc(C2CCN(S(=O)(=O)c3ccc4c(c3)OCCO4)CC2)[nH]c2c1nnn2Cc1ccc(F)cc1` [MLS001216943-01] gave an AC50 of 8.41 µM. In the case of `Cc1ccccc1N(C(=O)c1snc(C(N)=O)c1N)C(C(=O)NCC1CCCO1)c1ccc(N(C)C)cc1` (stereo not drawn) [MLS001218424-01], the AC50 was 7.5 µM. `O=C(NC1CC1)C1CCN(S(=O)(=O)c2ccc(Cl)cc2)CC1` [MLS001220436-01] gave an AC50 of 13.3 µM. Molecule `CCC(C)(C)n1nnnc1C(c1ccccc1OC)N1CCN(C(=O)c2ccco2)CC1` (stereo not drawn) [MLS001221981-01] has an AC50 of 15 µM. With `CCC(C)c1ccc(N(C(=O)c2ccco2)C(C(=O)NC2CCCC2)c2cccnc2)cc1` (stereo not drawn) [MLS001222477-01] the AC50 was 6.68 µM.
